Measured values from US8030478B2, “Method for nucleic acid replication and novel artificial base pairs” (priority 2005, dated 2011).
Where two headings read alike, the source gives them in different places.

Columns and labels:
[1] = target: T1, T7 RNA polymerase (Escherichia phage T7, UniProt P00573); details: for transcripts biotinylated (incorporation rate): DNA6 template obtained by ligation; for misincorporation opposite natural bases, yield of biotinylated transcripts / misincorporation per base position in the 152-mer transcripts: DNAcont2 template
Method: 152-mer RNAs transcribed with Bio-PaTP from DNA6 template obtained by ligation and DNAcont2 template obtained by PCR amplification (20 cycles), as well as 152-mer RNAs transcribed with biotinylated UTP (Bio-UTP) from DNAcont5 and DNAcont6 templates obtained by ligation were mixed with streptavidin. Biotinylated RNA-streptavidin complexes were separated from free RNAs on a 7% polyacrylamide-7 M urea gel, and the percentages (yields) of the complexes were determined from their band intensity.
Transcription (20 μl) was performed for 6 hours at 37° C. using 3 μCi [γ-^32P]GTP, 2 mM each natural NTP, 0-4 mM Bio-PaTP (biotinylated Pa substrate: chemically synthesized as shown in Example IV), and 30 nM template (DNA6 and DNAcont2 (see FIG. 6), obtained by both ligation and PCR amplification).
For control reactions using DNAcont5 and DNAcont6 obtained by ligation (see FIG. 6), transcription was performed only with 2 mM ATP, GTP and CTP in the presence or absence of 2 mM Bio-UTP (biotin-16-uridine-5′-triphosphate, Roche Applied Science). The products were analyzed and purified on a 7-10% polyacrylamide-7 M urea gel.
The biotinylated RNA transcripts were detected by gel shift assay using streptavidin. A mixture (10 μl) of 2 pmol ^32P-labeled transcript and 100 pmol streptavidin (Promega) was incubated at 20° C. for 1 hour in 10 mM Tris-HCl buffer (pH 7.6) containing 50 mM NaCl and 10 mM EDTA. The biotinylated RNA-streptavidin complexes were analyzed by electrophoresis on a 7% polyacrylamide-7 M urea gel. To determine the position where Bio-Pa was introduced, each RNA (152-mer) was labeled with [γ-^32P]ATP (Perkin Elmer) after 5′-dephosphorylation with calf intestinal alkaline phosphatase (Takara). The labeled RNA was partially digested with RNase T1 at 55° C. for 12 minutes in 13.3 mM sodium citrate buffer (pH 5.0) containing 4.7 M urea, 0.7 mM EDTA and 0.17 mg/ml E. coli tRNA, or with alkali at 90° C. for 15 minutes in 32 mM sodium carbonate buffer (pH 9.1) containing 0.6 mM EDTA. The alkali-digested RNA solution (9 μl) was mixed with 11 μl of 20 mM Tris-HCl buffer (pH 7.6) containing 150 mM NaCl, and the mixture (10 μl) was then incubated with streptavidin magnetic beads (0.4 mg) (New England BioLabs) for 5 minutes at room temperature to capture the biotinylated RNA. An aliquot (5 μl) of the supernatant was analyzed together with other digested samples on a 10% polyacrylamide-7 M urea gel.

[2] = target: T1, T7 RNA polymerase; details: 1 mM substrate, 1 mM NTPs, template DNA containing Ds, 37° C., 3 hours; FIG. 49
Method: More specifically, experimental procedures as shown below were used. […] After reaction at 37° C. for 3 hours, 10 M urea (20 μL) was added to this solution to stop the reaction.

[3] = target: Klenow fragment lacking 3′-5′ exonuclease activity (Escherichia coli, UniProt P00582, D355A/E357A); details: template DNA (55-mer) containing Ds, 10 μM substrate, 37° C., 5 minutes; FIG. 48
Method: More specifically, experimental procedures as shown below were used. […] The reaction was performed using 200 nM Template-Primer, 100 μM or 200 μM dNTPs (N=A, G, C, T), 10 μM NH2-hx-dPnTP or FAM-hx-dPnTP, and 0.1 U/μl Klenow fragment (GE Health Care) in 50 mM Tris-HCl (pH 7.5), 10 mM MgCl2, 1 mM DTT, 0.05 mg/ml BSA. After reaction at 37° C. for 5 minutes, 10 M urea (20 μl) was added to this solution to stop the reaction. […] Bands of the reaction products were detected with a fluorescence image analyzer (Molecular Imager, Bio-Rad, FAM detection mode).

[4] = target: T2, Klenow fragment lacking exonuclease activity (KF exo−) (Escherichia coli, UniProt P00582, D355A/E357A); format: biochemical, E. coli; details: for Efficiency (Vmax/KM) / Km / Vmax: 37° C.
T2 construct: enzyme solution of the Klenow fragment lacking exonuclease activity (KF exo^−, Amersham USB); purchased Amersham USB
Method: The single nucleotide insertion experiment was performed as described in documents (Non-patent Documents 30-32). A primer (20-mer) labeled with 6-carboxylfluorescein at the 5′-end was annealed with template DNA (35-mer) by heating at 95° C. and slow cooling to 4° C. in 100 mM Tris-HCl (pH 7.5) buffer containing 20 mM MgCl2, 2 mM DTT and 0.1 mg/ml bovine serum albumin. The primer-template duplex solution (10 μM, 5 μl) was mixed with 2 μl enzyme solution of the Klenow fragment lacking exonuclease activity (KF exo^−, Amersham USB). After the mixture was incubated for 2 minutes, each dNTP solution (3 μl) was added to this solution to start the reaction at 37° C. The amount of the enzyme used (5-50 nM), the reaction time (1-35 minutes) and the gradient concentration of each dNTP (0.3-1500 μM) were adjusted to ensure conditions giving 25% or less products. The reaction was stopped with 10 μl stop solution (95% formamide and 20 mM EDTA), and the mixture was immediately heated at 75° C. for 3 minutes. The diluted products were analyzed in an automated ABI377 DNA sequencer equipped with GeneScan software (version 3.0) (Non-patent Document 32). The relative velocity (v0) was calculated by dividing the extent of reaction by the reaction time, and then normalized to the enzyme concentration (20 nM) for the various enzyme concentrations used. Kinetic parameters (KM and Vmax) were obtained from Hanes-Woolf plots of [dNTP]/v0 against [dNTP].
Each parameter was averaged from 3 to 8 data sets.

[5] = target: Klenow fragment (KF exo+ / KF exo−) (Escherichia coli, UniProt P00582); details: dPaTP and natural substrates in the presence of the named substrate (0.5 or 1 molar equivalent of dPaTP); FIG. 2d
Method: (§1) [FIG. 2d] FIGS. 2a to 2e show single nucleotide insertion and primer extension experiments with an unnatural base pair system based on Ds-Pa base pairing.
(§2) [FIG. 2e] FIGS. 2a to 2e show single nucleotide insertion and primer extension experiments with an unnatural base pair system based on Ds-Pa base pairing.
(§3) A 5′-^32P-labeled primer (23-mer) and template DNA (35-mer) were annealed into duplex form in 20 mM Tris-HCl (pH 7.5) buffer containing 14 mM MgCl2 and 0.2 mM DTT. The duplex solution (400 nM, 5 μl) was mixed with each 5× dNTP solution (2 μl) on ice, followed by addition of 3 μl enzyme solution containing KF exo^− (1 unit) or KF exo^+ (1 unit) (TAKARA) to start the reaction. After the reaction solution was incubated at 37° C. for 3 or 5 minutes, a dye solution (10 μl) containing 89 mM Tris-borate, 2 mM EDTA, 10 M urea and 0.05% BPB was added to stop the reaction. […] The products on the gel were analyzed with a bio-imaging analyzer (model BAS2500, Fuji).

[6] = system: Klenow fragment (KF exo+ / KF exo−); details: FIG. 2e; for primer extension after incorporation of the substrate: dDsTPN opposite template Pa, dATPN opposite template T, Lanes 2 and 14
Method: as §1, §2, §3

T2 sequence (P00582 324-928 D355A/E357A): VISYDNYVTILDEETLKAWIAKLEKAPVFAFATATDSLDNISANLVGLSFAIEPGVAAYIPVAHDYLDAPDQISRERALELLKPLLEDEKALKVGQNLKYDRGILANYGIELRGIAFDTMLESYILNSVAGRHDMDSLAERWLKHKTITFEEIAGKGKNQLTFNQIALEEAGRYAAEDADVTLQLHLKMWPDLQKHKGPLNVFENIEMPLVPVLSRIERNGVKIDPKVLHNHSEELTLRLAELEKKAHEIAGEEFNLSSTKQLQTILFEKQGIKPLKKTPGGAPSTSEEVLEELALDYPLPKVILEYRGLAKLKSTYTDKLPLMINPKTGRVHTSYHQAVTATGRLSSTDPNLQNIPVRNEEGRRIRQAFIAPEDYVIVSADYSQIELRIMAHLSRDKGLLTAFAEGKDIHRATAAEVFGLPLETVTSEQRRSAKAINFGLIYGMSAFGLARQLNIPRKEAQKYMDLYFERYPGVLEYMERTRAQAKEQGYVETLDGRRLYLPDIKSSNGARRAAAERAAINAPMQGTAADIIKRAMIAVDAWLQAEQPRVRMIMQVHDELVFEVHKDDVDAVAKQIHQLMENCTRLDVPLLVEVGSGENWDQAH
T1 sequence (P00573 whole entry): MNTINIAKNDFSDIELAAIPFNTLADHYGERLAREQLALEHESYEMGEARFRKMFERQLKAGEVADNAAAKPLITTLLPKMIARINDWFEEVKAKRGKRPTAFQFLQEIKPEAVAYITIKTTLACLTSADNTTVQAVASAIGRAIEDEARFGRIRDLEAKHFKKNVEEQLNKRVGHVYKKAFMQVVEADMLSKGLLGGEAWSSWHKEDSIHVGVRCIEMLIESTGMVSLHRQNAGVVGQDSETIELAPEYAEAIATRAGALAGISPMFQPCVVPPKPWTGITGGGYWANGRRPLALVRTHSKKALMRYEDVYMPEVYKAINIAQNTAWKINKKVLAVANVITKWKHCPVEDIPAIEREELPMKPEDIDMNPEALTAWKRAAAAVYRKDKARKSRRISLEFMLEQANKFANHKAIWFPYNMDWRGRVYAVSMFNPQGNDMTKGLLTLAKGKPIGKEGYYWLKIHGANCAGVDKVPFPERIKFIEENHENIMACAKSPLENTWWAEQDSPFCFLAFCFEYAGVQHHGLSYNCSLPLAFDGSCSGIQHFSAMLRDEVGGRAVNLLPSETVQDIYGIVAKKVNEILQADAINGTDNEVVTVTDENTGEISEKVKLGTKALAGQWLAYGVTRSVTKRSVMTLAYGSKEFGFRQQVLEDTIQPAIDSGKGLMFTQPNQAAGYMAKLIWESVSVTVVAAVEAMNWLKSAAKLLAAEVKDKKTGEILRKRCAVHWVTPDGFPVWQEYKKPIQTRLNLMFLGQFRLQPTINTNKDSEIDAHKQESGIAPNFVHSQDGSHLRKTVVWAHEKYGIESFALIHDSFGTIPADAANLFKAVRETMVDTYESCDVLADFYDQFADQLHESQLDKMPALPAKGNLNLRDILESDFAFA
Klenow fragment (KF exo+ / KF exo−) (Escherichia coli, UniProt P00582), sequence (P00582 324-928): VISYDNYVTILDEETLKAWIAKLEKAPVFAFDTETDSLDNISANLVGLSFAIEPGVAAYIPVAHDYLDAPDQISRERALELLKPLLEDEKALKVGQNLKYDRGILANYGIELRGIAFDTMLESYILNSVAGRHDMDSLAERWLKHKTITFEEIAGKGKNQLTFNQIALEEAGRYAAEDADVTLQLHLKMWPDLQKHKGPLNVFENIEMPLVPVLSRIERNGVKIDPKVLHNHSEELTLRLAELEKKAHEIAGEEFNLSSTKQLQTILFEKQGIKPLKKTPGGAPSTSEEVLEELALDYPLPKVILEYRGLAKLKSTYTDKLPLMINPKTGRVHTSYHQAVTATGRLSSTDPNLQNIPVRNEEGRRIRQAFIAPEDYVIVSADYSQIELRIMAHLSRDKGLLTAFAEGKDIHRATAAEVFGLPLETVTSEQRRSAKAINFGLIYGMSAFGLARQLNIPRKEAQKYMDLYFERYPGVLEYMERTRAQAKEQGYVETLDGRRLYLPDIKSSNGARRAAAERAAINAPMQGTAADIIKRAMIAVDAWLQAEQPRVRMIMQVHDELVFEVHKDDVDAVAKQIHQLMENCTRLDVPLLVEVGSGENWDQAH
Klenow fragment lacking 3′-5′ exonuclease activity, sequence (P00582 324-928 D355A/E357A): as the sequence (P00582 324-928 D355A/E357A) above

Row | Compound | Efficiency (Vmax/KM) ([4]; template (N) = C, temp35N-2) | Km ([4]; template (N) = C, temp35N-2) [µM] | Vmax ([4]; template (N) = C, temp35N-2) [% min^−1] | Efficiency (Vmax/KM) ([4]; template (N) = Ds, temp35N-1) | Km ([4]; template (N) = Ds, temp35N-1) [µM] | Vmax ([4]; template (N) = Ds, temp35N-1) [% min^−1] | Efficiency (Vmax/KM) ([4]; template (N) = Pa, temp35N-2) | Km ([4]; template (N) = Pa, temp35N-2) [µM] | Vmax ([4]; template (N) = Pa, temp35N-2) [% min^−1] | Efficiency (Vmax/KM) ([4]; template (N) = Pa′, temp35N-2) | Km ([4]; template (N) = Pa′, temp35N-2) [µM] | Vmax ([4]; template (N) = Pa′, temp35N-2) [% min^−1] | Efficiency (Vmax/KM) ([4]; template (N) = T, temp35N-2) | Km ([4]; template (N) = T, temp35N-2) [µM] | Vmax ([4]; template (N) = T, temp35N-2) [% min^−1] | other results
1 | O=Cc1cc(C#CCNC(=O)CCCC[C@@H]2SC[C@@H]3NC(=O)N[C@@H]32)cn1[C@@H]1O[C@H](COP(=O)(O)OP(=O)(O)OP(=O)(O)O)[C@@H](O)[C@H]1O [Bio-PaTP, 1-(β-D-ribofuranosyl)-4-[(3-biotinamido-1-propynyl)]pyrrole-2-carbaldehyde 5′-triphosphate] | – | – | – | – | – | – | – | – | – | – | – | – | – | – | – | transcripts biotinylated (incorporation rate) ([1]; 2 mM Bio-PaTP): 90%; transcripts biotinylated (incorporation rate) ([1]; 4 mM Bio-PaTP): 96%; misincorporation opposite natural bases, yield of biotinylated transcripts ([1]; 2 mM Bio-PaTP): 9%; misincorporation per base position in the 152-mer transcripts ([1]; 2 mM Bio-PaTP): 0.06%; misincorporation opposite natural bases, yield of biotinylated transcripts ([1]; 4 mM Bio-PaTP): 16%; misincorporation per base position in the 152-mer transcripts ([1]; 4 mM Bio-PaTP): 0.12%; reduction of incorporation rate with template obtained by PCR amplification ([1]; template from PCR (20 cycles), FIG. 44d, Lanes 9 and 11): 3-4%
2 | O=Cc1cc(C#CCNC(=O)CCCCCNC(=O)c2ccc3c(c2)C(=O)OC32c3ccc(O)cc3Oc3cc(O)ccc32)cn1[C@@H]1O[C@H](COP(=O)(O)OP(=O)(O)OP(=O)(O)O)[C@@H](O)[C@H]1O [FAM-hx-PaTP, 1-(β-D-Ribofuranosyl)-4-[3-(6-(fluorescein-5-carboxamido)hexanamido)-1-propynyl]pyrrole-2-carbaldehyde 5′-triphosphate] | – | – | – | – | – | – | – | – | – | – | – | – | – | – | – | transcription efficiency compared to control with natural substrates alone [2]: 14%
3 | NCCCCCC(=O)NCC#Cc1cc([N+](=O)[O-])n([C@H]2C[C@H](O)[C@@H](COP(=O)(O)OP(=O)(O)OP(=O)(O)O)O2)c1 [NH2-hx-dPnTP] | – | – | – | – | – | – | – | – | – | – | – | – | – | – | – | incorporation into DNA through primer extension [3]: incorporated into DNA opposite Ds in the template DNA
4 | biotin-16-uridine-5′-triphosphate [Bio-UTP, reference compound] | – | – | – | – | – | – | – | – | – | – | – | – | – | – | – | biotinylation of transcripts by incorporation opposite A ([1]; DNAcont5 template, 2 mM Bio-UTP, 2 mM ATP, GTP and CTP): completely biotinylated; transcripts biotinylated by misincorporation opposite bases G, C and T ([1]; DNAcont6 template, 2 mM Bio-UTP, 2 mM ATP, GTP and CTP): 21%
5 | O=P(O)(O)OP(=O)(O)OP(=O)(O)OC[C@H]1O[C@@H](n2cnc3c(-c4cccs4)ccnc32)C[C@@H]1O [dDsTP, 7-(2-Thienyl)-3-(2-deoxy-β-ribofuranosyl)-3H-imidazo[4,5-b]pyridine 5′-triphosphate] | 2.8 × 10^4 % min^−1M^−1 | 47 | 1.3 | 2.0 × 10^5 % min^−1M^−1 | 8 | 1.6 | 1.1 × 10^4 % min^−1M^−1 | 26 | 28 | 8.8 × 10^5 % min^−1M^−1 | 24 | 21 | 8.7 × 10^4 % min^−1M^−1 | 45 | 3.9 | Efficiency (Vmax/KM) ([4]; template (N) = A, temp35N-2): 3.6 × 10^4 % min^−1M^−1; Km ([4]; template (N) = A, temp35N-2): 33 µM; Vmax ([4]; template (N) = A, temp35N-2): 1.2 % min^−1; Efficiency (Vmax/KM) ([4]; template (N) = G, temp35N-2): 4.1 × 10^4 % min^−1M^−1; Km ([4]; template (N) = G, temp35N-2): 37 µM; Vmax ([4]; template (N) = G, temp35N-2): 1.5 % min^−1; primer extension with KF exo+ on Ds-containing template [5]: inhibited
6 | Nc1ncnc2c1ncn2[C@H]1C[C@H](O)[C@@H](COP(=O)(O)OP(=O)(O)OP(N)(=O)O)O1 [dATPN, 6-Amino-9-(2-deoxy-β-D-ribofuranosyl)purine 5′-γ-amidotriphosphate] | 3.4 × 10^2 % min^−1M^−1 | 590 | 0.20 | 3.2 × 10^2 % min^−1M^−1 | 150 | 0.048 | 1.8 × 10^3 % min^−1M^−1 | 1200 | 2.2 | 3.0 × 10^3 % min^−1M^−1 | 800 | 2.4 | 2.5 × 10^5 % min^−1M^−1 | 13 | 3.2 | extension reaction after misincorporation opposite template Pa, compared to dATP ([6]; Lanes 4 and 5): significantly reduced efficiency; primer extension after incorporation of the substrate [6]: proceeded efficiently
7 | CN(C)c1ccc2c(c1)Oc1cc(N(C)C)ccc1C21OC(=O)c2cc(C(=O)NCCCCCC(=O)NCC#Cc3cc(C=O)n([C@@H]4O[C@H](COP(=O)(O)OP(=O)(O)OP(=O)(O)O)[C@@H](O)[C@H]4O)c3)ccc21 [TAMRA-hx-PaTP, 1-(β-D-Ribofuranosyl)-4-[3-(6-(tetramethylrhodamine-5-carboxamido)hexanamido)-1-propynyl]pyrrole-2-carbaldehyde 5′-triphosphate] | – | – | – | – | – | – | – | – | – | – | – | – | – | – | – | transcription efficiency compared to control with natural substrates alone [2]: 10%
8 | NP(=O)(O)OP(=O)(O)OP(=O)(O)OC[C@H]1O[C@@H](n2cnc3c(-c4cccs4)ccnc32)C[C@@H]1O [dDsTPN, 7-(2-Thienyl)-3-(2-deoxy-β-D-ribofuranosyl)-3H-imidazo[4,5-b]pyridine 5′-γ-amidotriphosphate] | 1.5 × 10^3 % min^−1M^−1 | 440 | 0.64 | 9.9 × 10^3 % min^−1M^−1 | 79 | 0.78 | 6.7 × 10^4 % min^−1M^−1 | 180 | 12 | 5.7 × 10^4 % min^−1M^−1 | 230 | 13 | 3.5 × 10^3 % min^−1M^−1 | 480 | 1.7 | incorporation efficiency opposite template Pa relative to that of dATPN opposite template Pa ([4]; KF exo−, template Pa): 37 fold; Efficiency (Vmax/KM) ([4]; template (N) = A, temp35N-2): 1.9 × 10^3 % min^−1M^−1; Km ([4]; template (N) = A, temp35N-2): 270 µM; Vmax ([4]; template (N) = A, temp35N-2): 0.52 % min^−1; Efficiency (Vmax/KM) ([4]; template (N) = G, temp35N-2): 1.9 × 10^3 % min^−1M^−1; Km ([4]; template (N) = G, temp35N-2): 300 µM; Vmax ([4]; template (N) = G, temp35N-2): 0.58 % min^−1; primer extension with KF exo+ on Ds-containing template [5]: proceeded without being inhibited; primer extension after incorporation of the substrate [6]: proceeded efficiently
9 | O=C(CCCCCNC(=O)c1ccc2c(c1)C(=O)OC21c2ccc(O)cc2Oc2cc(O)ccc21)NCC#Cc1cc([N+](=O)[O-])n([C@H]2C[C@H](O)[C@@H](COP(=O)(O)OP(=O)(O)OP(=O)(O)O)O2)c1 [FAM-hx-dPnTP, 1-(2-Deoxy-β-D-ribofuranosyl)-4-[3-[6-(fluorescein-5-carboxamido)hexanamido]-1-propynyl]-2-nitropyrrole 5′-triphosphate] | – | – | – | – | – | – | – | – | – | – | – | – | – | – | – | incorporation into DNA through primer extension [3]: incorporated into DNA opposite Ds in the template DNA
